Reference: EP0037495A1, “Pyrimidyl quinazolines, process for their preparation and pharmaceutical compositions containing them” (CASSELLA Aktiengesellschaft, priority 1980, dated 1981)

System: normotonen narkotisierten Ratte
Assay: Blood pressure measurement in the normotensive anaesthetised rat
Assay type: in vivo
Conditions: mean; for WD min x̄ (Wirkungsdauer): time from onset of change until return to baseline
Experimental: 1. Blutdruckmessung an der normotonen narkotisierten Ratte
Männliche IVANOVAS-Ratten (300 - 340 g) des Stammes SIV 50 wurden durch Applikation von 66 mg/kg a-Chloralose (1,1 % Lösung, 0,6 ml/100 g) und 20 mg:kg Aprobarbital in die Schwanzvene narkotisiert. Die Trachea wurde kannuliert um die Spontanatmung zu erleichtern. Die Messung des Blutdruckes erfolgte blutig über einen in die Rechte A. carotis eingebundenen PE-Schlauch auf konventionelle Weise. Mittels eines Dreiwegehahnes konnte dieser PE-Schlauch zur i.a.-Applikation der Prüfsubstanzen benutzt werden, wobei jeweils ein Volumen von 0,1 ml injiziert wurde. Durch Nachspülen mit 0,9 % NaCl gelangten die Substanzen über die Vertebralarterie auch in Richtung Zentralnervensystem bevor die Verteilung im allgemeinen Kreislauf erfolgte.
Zahlenmäßig ausgewertet wurde die maximale systolische und diastolische Blutdrucksenkung sowie die maximale Änderung der Herzfrequenz. Als Wirkdauer galt die Zeit vom Eintritt der Veränderung bis zum Erreichen des Ausgangswertes.

SMILES	WD min x̄ (Wirkungsdauer) (dose 0.01 mg/kg i.a.) [min]	HF Δ s/min x̄ (maximal change of heart rate, dose 0.1 mg/kg i.a.) [s/min]	WD min x̄ (Wirkungsdauer) (dose 0.1 mg/kg i.a.) [min]
COc1cc2nc(N3CCN(c4c([N+](=O)[O-])c(=O)n(C)c(=O)n4C)CC3)nc(N)c2cc1OC [*]	36	–	–
COc1cc2nc(N3CCN(C(=O)c4ccco4)CC3)nc(N)c2cc1OC [Prazosin]	–	0	60
